Test results from patent publication US10307420B2, “Treating sexual desire disorders with flibanserin” (Sprout Pharmaceuticals, Inc., priority 2001, dated 2019).

Legend:
5-HT1A receptor = biological target: T1, 5-HT1A receptor (Homo sapiens, UniProt P08908); conditions: statement in the background, no value; cited from earlier work
T1 sequence (P08908 1-422): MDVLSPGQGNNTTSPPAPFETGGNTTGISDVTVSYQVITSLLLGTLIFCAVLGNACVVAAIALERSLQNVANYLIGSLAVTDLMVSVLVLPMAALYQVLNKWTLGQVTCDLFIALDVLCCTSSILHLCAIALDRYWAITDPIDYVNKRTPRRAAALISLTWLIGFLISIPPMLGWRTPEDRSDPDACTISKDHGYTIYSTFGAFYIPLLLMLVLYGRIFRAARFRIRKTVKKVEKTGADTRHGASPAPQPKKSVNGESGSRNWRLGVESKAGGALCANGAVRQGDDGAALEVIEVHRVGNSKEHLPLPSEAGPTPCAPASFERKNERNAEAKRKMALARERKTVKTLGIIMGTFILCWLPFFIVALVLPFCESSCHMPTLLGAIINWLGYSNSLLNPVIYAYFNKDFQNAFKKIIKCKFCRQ

[1] = studies of male and female patients suffering from sexual dysfunction; assay type: in vivo, human patients
Text: Accordingly, the instant invention relates to the use of flibanserin, optionally in form of the pharmacologically acceptable acid addition salts thereof for the preparation of a medicament for the treatment of disorders of sexual desire.

5HT2-receptor = conditions: statement in the background, no value; cited from earlier work

SMILES: O=c1[nH]c2ccccc2n1CCN1CCN(c2cccc(C(F)(F)F)c2)CC1 [Flibanserin, 1-[2-(4-(3-trifluoromethyl-phenyl)piperazin-1-yl)ethyl]-2,3-dihydro-1H-benzimidazol-2-one]
- affinity for the 5-HT1A receptor (5-HT1A receptor): shows affinity
- sexual desire enhancing properties [1]: displays sexual desire enhancing properties
- affinity for the 5HT2-receptor (5HT2-receptor): shows affinity
